From patent publication US20060205809A1, “Pharmaceutical preparation containing palladium complex compounds and the uses thereof for treating cancer and autoimmune disease” (priority 2002, published 2006) come the findings set out here.

Like-named read-outs stand apart in the source and are kept apart here.

The subject of one assay is CALU-6 (lung cancer). Briefly: Cytotoxicity assay, 2 h drug exposure at pH 6.8 or 7.4, crystal violet staining. The format is cell-based, human. The following applies: then 72 h. The protocol: (§1) The Pd-complexes were dissolved in acetone (1 mg/ml stock solution). Human cancer cell lines SK-MEL 25 (melanoma) and CALU-6 (lung cancer) were used for the determination of the cytotoxic activity of Pd-complexes. For comparison, the well known anti-tumor drugs cisplatin and corresponding platinum complexes were included. Cells were seeded at a density of 2×10^6 cells/96 well plate. After 24 h, tissue culture medium was removed and fresh medium supplemented with 10% fetal calf serum and 100 units/ml penicillin/streptomycin containing either 2.2 g/l (pH 7.4) or 0.85 g/l (pH 6.8) NaHCO3 was added. After 1 hour of equilibration in an atmosphere containing 5% CO2, drugs were added at various concentrations (50, 25, 12.5, 6.25, 3.1, 1.6, 0.8 μg/ml) in quadruplicate. Untreated cultures served as controls. Two hours later, the culture medium was replaced with 0.1 ml of fresh tissue culture medium (pH 7.4, 10% fetal calf serum). Culture plates were then incubated for 48 h (SK-MEL 25) or 72 h (Calu-6) at 37° C. Then, cells were fixed with 3% formaldehyde and stained with 1% crystalviolet. The number of viable cells is proportional to the amount of bound cristalviolet. Therefore, the relative cell number could be determined at an Antos 2001 ELISA reader (550 nm). Dose response curves were established from the OD data and the concentration at which the cell number was reduced to 50% of the control (IC50) was determined.

A further assay has as its system SK-MEL 25 (melanoma). Described as above. In kind it is cell-based, human. As to conditions: then 48 h. How it is done:
as §1

[1] abbreviates: CALU-6, pH 6.8, 2 h drug exposure, read-out: IC50-values, CALU-6, pH 6.8.
The mark [2] stands for this setting: CALU-6, pH 7.4, 2 h drug exposure, read-out: IC50-values, CALU-6, pH 7.4.
The mark [3] stands for this setting: SK-MEL 25, pH 6.8, 2 h drug exposure, read-out: IC50-values, SK-MEL 25, pH 6.8.
[4] abbreviates: SK-MEL 25, pH 7.4, 2 h drug exposure, read-out: IC50-values, SK-MEL 25, pH 7.4.

For the compound `CCOC(=S)[S-].CCOC(=S)[S-].[Pt+2]` [Bis(O-ethyl-dithiocarbonato) platin, reference compound], the half-inhibitory concentration (IC50) with CALU-6 (lung cancer) (setting [1]) amounted to 12 µM; in the assay on CALU-6 (lung cancer) (setting [2]), 28 µM; in the assay with SK-MEL 25 (melanoma) (setting [3]), 21 µM; in the assay on SK-MEL 25 (melanoma) (setting [4]), 45 µM.

Regarding `CC(C)OC(=S)[S-].CC(C)OC(=S)[S-].[Pt+2]` [Bis(O-isopropyl-dithiocarbonato)platin, reference compound], the IC50 in the assay on CALU-6 (lung cancer) (setting [1]) was 6 µM; in the assay on CALU-6 (lung cancer) (setting [2]), 10 µM; in the assay on SK-MEL 25 (melanoma) (setting [3]), 6 µM; in the assay on SK-MEL 25 (melanoma) (setting [4]), 12 µM.

Take `N.N.[Cl][Pt][Cl]` [Cisplatin, reference compound]: the IC50 in the assay with CALU-6 (lung cancer) (setting [1]) worked out at 6.25 µM; in the assay on CALU-6 (lung cancer) (setting [2]), 6.25 µM; with SK-MEL 25 (melanoma) (setting [3]), 25 µM; with SK-MEL 25 (melanoma) (setting [4]), 25 µM.

Regarding `S=C([S-])OC1CCCCC1.S=C([S-])OC1CCCCC1.[Pd+2]` [compound 1, Bis(O-cyclohexyl-dithiocarbonato)palladium(II)], the 50% inhibitory concentration (IC50) in the assay with CALU-6 (lung cancer) (setting [1]) worked out at 2 µM; in the assay with CALU-6 (lung cancer) (setting [2]) it was 4 µM; with SK-MEL 25 (melanoma) (setting [3]) it was 6 µM; in the assay with SK-MEL 25 (melanoma) (setting [4]) it was 10 µM.

`CC(C)OC(=S)[S][Pd][S]C(=S)OC(C)C` [compound 2, Bis(O-isopropyl-dithiocarbonato)palladium(II)]: the IC50 in the assay with CALU-6 (lung cancer) (setting [1]) stood at 0.6 µM; in the assay with CALU-6 (lung cancer) (setting [2]), 1.6 µM; in the assay with SK-MEL 25 (melanoma) (setting [3]), 0.8 µM; in the assay with SK-MEL 25 (melanoma) (setting [4]), 1.3 µM.

As for `CCOC(=S)[S][Pd][S]C(=S)OCC` [compound 3, Bis(O-ethyl-dithiocarbonato)palladium(II)], the IC50 in the assay with CALU-6 (lung cancer) (setting [1]) worked out at 2 µM; with CALU-6 (lung cancer) (setting [2]), 8 µM; in the assay on SK-MEL 25 (melanoma) (setting [3]) it was 5 µM; with SK-MEL 25 (melanoma) (setting [4]), 14 µM.

On to `CCC(C)COC(=S)[S][Pd][S]C(=S)OCC(C)CC` (stereo not shown) [compound 4, Bis(O-(2-methyl)-butyl-dithiocarbonato)palladium(II)], for which the half-maximal inhibitory concentration (IC50) was determined as 2 µM in the assay on CALU-6 (lung cancer) (setting [1]), 6 µM in the assay on CALU-6 (lung cancer) (setting [2]), 6 µM in the assay with SK-MEL 25 (melanoma) (setting [3]) and 9 µM in the assay with SK-MEL 25 (melanoma) (setting [4]).

Take `CCCCOC(=S)[S-].CCCCOC(=S)[S-].[Pd+2]` [compound 5, Bis(O-butyl-dithiocarbonato)palladium(II)]: the concentration for half-maximal inhibition (IC50) turned out to be 1 µM in the assay on CALU-6 (lung cancer) (setting [1]), 2.5 µM with CALU-6 (lung cancer) (setting [2]), 1 µM in the assay on SK-MEL 25 (melanoma) (setting [3]) and 3.1 µM with SK-MEL 25 (melanoma) (setting [4]).

In the case of `CCCCCCOC(=S)[S-].CCCCCCOC(=S)[S-].[Pd+2]` [compound 6, Bis(O-hexyl-dithiocarbonato)palladium(II)], the IC50 in the assay on CALU-6 (lung cancer) (setting [1]) is 3.1 µM; in the assay on CALU-6 (lung cancer) (setting [2]), 6.25 µM; in the assay on SK-MEL 25 (melanoma) (setting [3]) it was 10 µM; with SK-MEL 25 (melanoma) (setting [4]), 10 µM.

In the case of `COC(=S)[S-].COC(=S)[S-].[Pd+2]` [compound 7, Bis(O-methyl-dithiocarbonato)palladium(II)], the IC50 in the assay with CALU-6 (lung cancer) (setting [1]) is 1.6 µM; in the assay on CALU-6 (lung cancer) (setting [2]), 4.5 µM; in the assay on SK-MEL 25 (melanoma) (setting [3]) it was 4.5 µM; in the assay with SK-MEL 25 (melanoma) (setting [4]) it was 6.2 µM.
